Measurements taken from US20020137774A1, “Carboxyaryl substituted diphenyl ureas as raf kinase inhibitors” (BAYER CORPORATION, priority 1999, published 2002).

melting point: 228 to 230 °C
SMILES: COC(=O)c1ccc(Oc2ccc(NC(=O)Nc3ccc(Cl)c(C(F)(F)F)c3)cc2)cn1 [Entry 55, N-(4-chloro-3-(trifluoromethyl)phenyl)-N′-(4-(2-(methoxycarbonyl)-5-pyridyloxy)phenyl) urea]
